According to article PMC7356970, “A Population Pharmacokinetic and Pharmacodynamic Model of CKD-519” (Pharmaceutics, 2020):
In brackets after ≈: the same amount, converted by molar mass.

Experiments:
HDL-C = assay: population HDL-C model (turnover, sigmoid Emax); type: in vivo, human
Protocol: (§1) Blood samples for PK or PD were collected on days 1 (0, 1, 2, 3, 4, 5, 6, 7, 8, 10, 12, 18, and 24 h) and 14 (0, 1, 2, 3, 4, 5, 6, 7, 8, 10, 12, 18, 24, 32, 48, 72, 96, 120, 144, and 168 h), along with daily sampling on days 2 through 13 to determine trough levels of drug concentration, CETP activity, and lipid values. Each blood sample for PK and CETP activity was collected in sodium heparin tubes and then centrifuged at 1900 g for 10 min. Their aliquots were stored at or below […] until analysis. The plasma concentrations of CKD-519 were measured using a validated high-performance liquid chromatography-tandem mass spectrometry assay. A 100 μL plasma sample was mixed with 10 μL internal standard working solution and 300 μL acetonitrile. After centrifugation, 3 μL supernatant was injected into the column. The lower limit of quantification was 1.0 ng/mL. The calibration curve was linear over the concentration range of 1.0–2000 ng/mL. The precision of the assay was less than 2.7% coefficient of variation, and the accuracy of the assay was within the range of 93.7–113.0% [5]. Plasma CETP activity was measured by using a fluorescent assay method previously described. HDL-C and LDL-C were measured with an ADIVA 1650 Clinical Chemistry System (Siemens Medical Solutions, Tarrytown, NY, USA).
(§2) For each of the HDL-C and LDL-C model development, their clinical laboratory results were used. Their responses by changing CETP activity were described using turnover models. Taking into account the physiological mechanism of CETP on lipid metabolism, the CETP effect was incorporated into the model as a stimulatory function of HDL-C elimination and an inhibitory function of LDL-C elimination. The effect of CETP activity on HDL-C or LDL-C was evaluated using linear, Emax, or sigmoid Emax models.
(§3) HDL-C and LDL-C models were best described with the sigmoid Emax function. The LDL-C in the placebo group tended to increase gradually over time. Thus, a linear model was used to describe the placebo effect on LDL-C after comparison with Emax and sigmoid Emax models. The changes in HDL-C and LDL-C concentration were described as follows:(7) dHDL/dt=Ksyn−Kdeg×AHDL×(1+RESCETP) (8) dLDL/dt=Ksy×(1+PLA)−Kdeg×ALDL×(1−RESCETP) (9) RESCETP=CETPactivityγ×Rmax/CETPactivityγ+R50γ (10) PLA=β×time where Ksyn and Ksy are the zero-order production rate constant, Kdeg is the first-order elimination rate constant, RESCETP is the change in CETP activity, Rmax is the maximal effect of CETP activity on HDL-C and LDL-C response, R50 is the CETP activity required to attain 50% maximal response of HDL-C and LDL-C, PLA is the placebo effect, and β is the proportionality constant.

LDL-C = assay: population LDL-C model (turnover, sigmoid Emax); type: in vivo, human
Protocol: as §1, §2, §3

CETP activity [1] = target: T1, CETP activity (Homo sapiens, UniProt P11597); assay: food effect on inhibition of CETP activity, single 200 mg; type: in vivo
T1 construct: from tissue; host or cells: plasma of healthy subjects (sodium heparin tubes)
T1 sequence (P11597 18-493): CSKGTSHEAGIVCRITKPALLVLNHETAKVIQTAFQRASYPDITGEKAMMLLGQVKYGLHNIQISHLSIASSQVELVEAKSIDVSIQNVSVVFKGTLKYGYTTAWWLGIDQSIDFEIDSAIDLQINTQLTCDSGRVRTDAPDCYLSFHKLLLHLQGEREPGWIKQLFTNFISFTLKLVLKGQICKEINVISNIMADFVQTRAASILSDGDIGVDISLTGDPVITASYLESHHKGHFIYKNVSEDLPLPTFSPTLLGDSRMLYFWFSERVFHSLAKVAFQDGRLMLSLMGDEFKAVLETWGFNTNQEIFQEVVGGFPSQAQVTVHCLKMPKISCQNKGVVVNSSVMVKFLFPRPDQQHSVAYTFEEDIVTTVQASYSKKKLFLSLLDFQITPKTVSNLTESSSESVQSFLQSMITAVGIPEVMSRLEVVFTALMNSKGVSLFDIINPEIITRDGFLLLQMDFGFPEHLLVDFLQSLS
Source text: (§4) The exposure of CKD-519 increased with the dose. However, maximum plasma concentration (Cmax) and area under the plasma concentration-time curve (AUC) normalized by dose decreased with each incremental dose.

[2] = multiple-dose study in healthy male subjects, plasma PK and population PK model; type: in vivo, human; settings: for CL/F: observed
Protocol: A randomized, double-blinded, placebo-controlled, multiple-dose, and dose-escalation study was conducted in a total of 32 healthy male subjects aged 19–55 years in four cohorts (50, 100, 200, and 400 mg). Six subjects were assigned to CKD-519, and two to matching placebo in each cohort. Dose escalation to the next cohort was done after the safety profile was reviewed. CKD-519 was available as two dosage forms of 50 and 100 mg tablets.
Enrolled subjects were admitted on day −1. CKD-519 or placebo was administered to randomly assigned subjects for 14 days with a standard breakfast meal (700–800 kcal, containing 5–25% fat content). All subjects were hospitalized until completion of blood sampling for PK and PD (from day −1 to day 21). All meals were nutritionally equivalent and provided at the same time scheduled throughout the study period. The participants were not permitted to take any drugs or herbal medications and also were restricted from consuming any other snacks or beverages during the study.
as §1
PK and PD models were developed using NONMEM version 7.3 (Icon Development Solutions, Ellicott City, MD, USA) using a first-order conditional estimation with interaction method (FOCE-INTER). R (version 3.6.1, R Foundation for Statistical Computing, Vienna, Austria) was used for data preparation, graphical analysis, and model diagnostics. The population PK-PD model was developed sequentially. The PK model was initially developed, and then the CETP model (PK-PD) was developed using individual PK parameters estimated from the final PK model. Finally, the cholesterol (HDL-C or LDL-C) models were developed using the individual CETP parameters estimated from the final CETP model.
Inter-individual variability (IIV) for each parameter in all models was assumed to follow a Gaussian distribution with a mean of 0 and variance of ω^2. For the PK model, once the IIV term was selected, the covariance between the terms was assessed using an omega block on selected parameters. As for the residual error, additive, proportional, and combined models were tested. The model was selected after a comparison of several criteria such as a decrease in the objective function value (OFV), completion of the estimation and covariance routines, the precision of the parameter and error estimates, and visual exploration of the diagnostic plots.
Several disposition models were assessed, including 1-, 2-, and 3- compartment structural models. Absorption was evaluated with first-order, zero-order (with and without lag time), Weibull-type, and Erlang’s model. The bioavailability was assessed about the effects of the dose and time. […]

serum CETP concentration = serum CETP concentration during multiple dosing; type: in vivo, human; settings: time-dependent, in house data
Source text: As reported earlier in other CETP inhibitors, the administration of CKD-519 in this study led to an approximately 2.5 fold increase in serum CETP concentration in a time-dependent manner (in house data). In the placebo group, serum CETP concentration increased by about 30% after two weeks (in house data). It has been reported that transcription of the CETP gene is under the control of extrinsic and intrinsic factors. Dietary cholesterol up-regulates CETP expression in human CETP-transgenic mice, and plasma cholesterol levels also correlate with CETP mass in humans. The increase in CETP activity in the placebo group might be due to increased serum CETP mass because dietary cholesterol regularly served during hospitalization for three weeks could have promoted CETP expression. […] Linear, Emax, and sigmoid Emax models were tested to explain CETP activity increase in the placebo group, and the Emax model by time best described the placebo effect.

[3] = cited from earlier work
CETP activity [4] = target: T1, CETP activity; parameters: method as in PMID 27895466; settings: healthy subjects, cited from earlier work
[5] = parameters: method as in PMID 30107219, PMID 27895466; settings: at pH 7.4; cited from earlier work
Plasma CETP activity = target: T2, Plasma CETP activity (Homo sapiens, UniProt P11597); assay: population CETP model (turnover model), plasma CETP activity by fluorescent assay; type: in vivo
T2 construct: from tissue; host or cells: plasma of healthy subjects (sodium heparin tubes)
T2 sequence (P11597 18-493): T1 sequence (P11597 18-493)
Protocol: as §1
Since CETP inhibition is closely related to HDL-C increase and LDL-C decrease, the CETP model was included as a link between the PK model of CKD-519 and cholesterol (HDL-C and LDL-C) models. For the CETP model, CETP activity was used as a dependent variable as this was the primary parameter of interest.
The turnover model was used to describe the relationship between CETP activity and plasma concentration of CKD-519. The effect of CKD-519 was applied in the model as stimulating the elimination of CETP activity. Because the CETP activity increased over time in the placebo group, the response of placebo treatment was incorporated into the CETP model. The effects of CKD-519 and placebo treatment were evaluated as linear, Emax, or sigmoid Emax relationships. […]

[6] = food effect on PK, single 200 mg, standard meal vs fasted; type: in vivo, human; settings: single 200 mg with a standard meal; in house data
Source text: as §4

[7] = final population PK model estimate

Q: Which “R50, CETP activity of half-maximal effect on HDL-C response” value (HDL-C; HDL-C model estimate) does the source give for COc1cc(F)c(C(C)C)cc1C1=C(CN2C(=O)O[C@H](c3cc(C(F)(F)F)cc(C(F)(F)F)c3)[C@@H]2C)CC(C)(C)CC1 [CKD-519] here?
A: 185.0 pmol

Q: And the “Rmax, maximal effect of CETP activity on HDL-C response” value (HDL-C; HDL-C model estimate)?
A: 1.5

Q: And the “γ, steepness of the CETP activity versus HDL-C relationship” value (HDL-C; HDL-C model estimate)?
A: 2.1

Q: And the “maximal increase in HDL-C” value (HDL-C; estimated)?
A: 160–190%

Q: And the “ωGAM, interindividual variability on γ” value (LDL-C; CV%, LDL-C model)?
A: 50.9%

Q: And the “R50, CETP activity of half-maximal effect on LDL-C response” value (LDL-C; LDL-C model estimate)?
A: 80.7 pmol

Q: And the “Rmax, maximal effect of CETP activity on LDL-C response” value (LDL-C; LDL-C model estimate)?
A: 0.8

Q: And the “γ, steepness of the CETP activity versus LDL-C relationship” value (LDL-C; LDL-C model estimate)?
A: 2.2

Q: And the “maximal decrease in LDL-C” value (LDL-C; estimated)?
A: 47–66%

Q: And the “inhibitory effect of CETP activity” value (CETP activity [1]; fasted group)?
A: 81.5%

Q: What about the “inhibitory effect of CETP activity” value (CETP activity [1]; fed group) of the same compound?
A: 91.4%

Q: And the “increase of CL/F from 50 mg to 200 mg” value ([2]; 50 mg vs 200 mg)?
A: approximately 2.5 fold

Q: What about the “increase of AUC after multiple administration compared to the first dose” value ([2]; 400 mg group) of the same compound?
A: three-fold increase

Q: What about the “α1, proportionality constant for fraction of first-order absorption process depending on time” value ([2]; 50, 100 and 200 mg dose groups) of the same compound?
A: 0.002

Q: And the “ωBmax, interindividual variability on BMAX” value ([2]; CV%)?
A: 28.2%

Q: What about the “ωCL/F, interindividual variability on CL/F” value ([2]; CV%) of the same compound?
A: 15.6%

Q: And the “ωKtr, interindividual variability on Ktr” value ([2]; CV%)?
A: 14.1%

Q: And the “ωV3/F, interindividual variability on V3/F” value ([2]; CV%)?
A: 58.1%

Q: What about the Tmax ([2]; all dose groups) of the same compound?
A: approximately 1 h

Q: And the “Ka, absorption rate constant” value [2, 7]?
A: 1.09 h⁻¹

Q: What about the “V2/F, volume of peripheral compartment 1” value [2, 7] of the same compound?
A: 45.4 L

Q: And the “V3/F, volume of peripheral compartment 2” value [2, 7]?
A: 1006.0 L

Q: What about the “V/F, volume of central compartment” value [2, 7] of the same compound?
A: 11.4 L

Q: What about the “CL/F, clearance” value ([2]; final population PK model estimate, 50–400 mg daily for 14 days with standard meal) of the same compound?
A: 6.4 L/h

Q: And the “Ktr, transit rate constant” value ([2]; final population PK model estimate, Erlang's absorption, five transit compartments)?
A: 1.10 h⁻¹

Q: And the CL/F ([2]; 50 mg)?
A: 11.98 L/h

Q: And the CL/F ([2]; 200 mg)?
A: 30.04 L/h

Q: What about the CL/F ([2]; 400 mg) of the same compound?
A: 23.98 L/h

Q: What about the half-life ([2]; terminal, across dose groups) of the same compound?
A: 145.4 to 166.2 h

Q: What about the “increase in serum CETP concentration” value (serum CETP concentration) of the same compound?
A: approximately 2.5 fold

Q: What about the aqueous solubility [3] of the same compound?
A: less than 1.0 μg/mL

Q: What about the “solubility in deionized water” value ([3]; in vitro solubility test) of the same compound?
A: insoluble

Q: And the “solubility in ethyl alcohol” value ([3]; in vitro solubility test)?
A: freely soluble

Q: What about the “maximum inhibitory effect of CETP activity” value (CETP activity [4]; single administration 25–400 mg) of the same compound?
A: 63–83%

Q: And the “EC50 (CETP activity)” value (CETP activity [4]; single administration)?
A: 17.3 ng/mL (≈ 0.0288 µM)

Q: What about the LogP [5] of the same compound?
A: > 5.0

Q: And the “EC50, plasma drug concentration of half-maximal effect on CETP activity” value (Plasma CETP activity; CETP model estimate)?
A: 587.0 ng/mL

Q: What about the “Emax, maximal effect of plasma drug concentration on CETP activity” value (Plasma CETP activity; CETP model estimate, stimulation of Kout) of the same compound?
A: 18.2

Q: And the “ωEmax, interindividual variability on Emax” value (Plasma CETP activity; CV%)?
A: 39.5%

Q: And the “increase in AUC relative to the fasted state” value [6]?
A: 5.8 fold

Q: And the “increase in Cmax relative to the fasted state” value [6]?
A: 8.7 fold
